The record followed here is PubChem BioAssay (NCI).

Test in all cases: DTP human tumour cell line panel, 48 h
The test system of experiment [1] is 786-0 renal.
For experiment [2], the system named is HT29 colon.
The test system of experiment [3] is SNB-19 CNS.
Experiment [4] relates to NCI-H226 lung.
Experiment [5] concerns MDA-MB-435.
Experiment [6] concerns PC-3 prostate.
In experiment [7] the test system is SK-MEL-28 melanoma.
Experiment [8] concerns CCRF-CEM leukemia.
The subject of experiment [9] is SF-295 CNS.
Experiment [10] has as its system KM12 colon.

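Interpolation was linear, between the two tested concentrations surrounding the appropriate level; five concentrations were tested over 48 hours in 96-well plates. Here, GI50 denotes the concentration required for 50% inhibition of growth. At the TGI there is no net growth.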 Bounds are passed on as bounds.

Consider `O=C1C=C(OCC=C(Cl)Cl)C(=O)c2ccccc21`, for which the GI50 was 51.9 µM in experiment [1]; 11.7 µM in experiment [2]; greater than 91.1 µM in experiment [3]; 18.7 µM in [4]; 1.65 µM in experiment [5]; 5.14 µM in experiment [6]. In addition, the GI50 in experiment [7] is 4.91 µM; in [8] it was 3.03 µM; in [9], 12.7 µM; in [10], 8.41 µM. The TGI in [1] was greater than 100 µM; in [2], greater than 100 µM; in [3], greater than 100 µM; in [4], 67.5 µM; in [5], 3.04 µM; in [6], greater than 100 µM. The TGI in [7] was 23.9 µM; in experiment [8] it was greater than 19.7 µM; in experiment [9], greater than 65.8 µM; in [10], greater than 90.7 µM.
In the case of `CSc1nc(-c2cccc(NC(=O)CCl)c2)c(C#N)c(=O)n1C`, the GI50 is 1.75 µM in experiment [1]; 1.68 µM in experiment [2]; 1.63 µM in experiment [3]; 3.65 µM in [4]; 2.06 µM in experiment [5]; 2.4 µM in [6]. Besides, the GI50 in experiment [7] is 2.85 µM; in experiment [8], 0.0989 µM; in experiment [9], 1.7 µM; in experiment [10], 1.82 µM. In addition, the TGI in experiment [1] was determined as 3.45 µM; in [2], 3.9 µM; in [3] it was 3.29 µM; in experiment [4], 44.3 µM; in [5], 5.98 µM; in experiment [6], 8.12 µM. Further, the TGI in experiment [7] was determined as 9.58 µM; in [8] it was 9.37 µM; in [9] it was 3.22 µM; in [10], 3.54 µM.
`CC(=O)Nc1cc(CN2CCCCC2)c(O)c2ncccc12`: the TGI in experiment [1] is 40.9 µM; in experiment [2], greater than 100 µM; in [3] it was greater than 100 µM; in experiment [4], 86.1 µM; in experiment [5], greater than 100 µM; in experiment [6] it was 81 µM. For the same compound, the TGI in experiment [7], in experiment [8], in [9] and in experiment [10] was greater than 100 µM in each case.
Turning to `CN1CCN(Cc2ccc(NC(=O)c3[nH]ncc3Nc3cc(OC4CCCC4)ncn3)cc2)CC1`, the GI50 in experiment [1] was 1.35 µM; in experiment [2], 2.53 µM; in [3], 4.74 µM; in experiment [4] it was 2.98 µM; in experiment [5] it was 1.84 µM; in experiment [6], 2.26 µM. The GI50 in [7] is 1.78 µM; in experiment [8], 2.39 µM; in experiment [9], 2.93 µM; in experiment [10] it was 2.18 µM. In addition, the TGI is 3.1 µM in experiment [1]; 8.53 µM in [2]; 15.7 µM in experiment [3]; 10.8 µM in experiment [4]; 8.32 µM in [5]; 11.1 µM in [6]. Also, the TGI in experiment [7] worked out at 3.87 µM; in [8], 11.2 µM; in [9], 12.5 µM; in [10], 6.19 µM.
In the case of `NCCNc1ncnc2ccc(Cl)cc12`, the TGI in experiment [1], in experiment [2], in [3], in experiment [4], in experiment [5] and in experiment [6] was greater than 100 µM throughout. Further, the TGI in [7], in experiment [8], in experiment [9] and in experiment [10] was greater than 100 µM in each case.
